Measured values published in US12594252B2, “Methods for treating inflammatory skin conditions” (JOURNEY MEDICAL CORPORATION, priority 2018, dated 2026).

Tested on: subjects diagnosed with papulopustular rosacea
Assay: 16-week, multi-center, randomized, double-blind, parallel-group, controlled efficacy study
Type: in vivo, human
Details: minocycline about 40 mg, equivalent doses
Protocol: The pharmaceutical compositions as shown in Example 1 and 3 were studied in a 16-week, multi-center, randomized, double-blind, parallel-group, controlled study to evaluate efficacy. Subjects, who were at least 18 years old, diagnosed with papulopustular rosacea were randomized to 4 different treatment groups (50 subjects each in groups 1 to 4). Each subject was allocated to one of the treatment groups, receiving a single dose of Example 1 (Group 1) and Example 3 (Group 2): […]®-40 mg doxycycline capsules (Group 3); and placebo capsules (Group 4), orally for 16 weeks. Subjects' visits were scheduled at screening, baseline (day 1), and weeks 4, 8, 12 and 16. Clinical assessments of efficacy was conducted based on, proportion of subjects with IGA 'treatment success (reduction in IGA grade)' and reduction in total inflammatory lesion count (sum of papules, pustules, and nodules) from baseline (day 1) to weeks 4, 8, 12 and 16. The results are shown in following table 9 (IGA 'treatment success), table 10 (total inflammatory lesion change), table 11 (P values) and FIG. 6, FIG. 7, FIG. 8.

CN(C)c1ccc(O)c2c1C[C@H]1C[C@H]3[C@H](N(C)C)C(O)=C(C(N)=O)C(=O)[C@@]3(O)C(O)=C1C2=O [minocycline, [4S-(4α,4aα,5aα,12aα)]-4,7-Bis(dimethylamino)-1,4,4a,5,5a,6,11,12a-octahydro-3,10,12,12a-tetrahydroxy-1,11-dioxo-2-naphthacenecarboxamide]
% reduction in lesion counts, more as compared to doxycycline (40 mg): about 100%
